Laboratory results from patent US7348138B2, “Method of inducing cell death using West Nile virus capsid protein” (priority 2000, dated 2008).

Key:
[1] = tested on: splenic lymphocytes; experiment: Lymphoproliferative assay (tritiated thymidine incorporation, stimulation index); assay type: cell-based, mice
Method: To evaluate the T cell-mediated immune response against the WNV Cp gene product, an in vivo mouse experiment was set up. The quadriceps muscles of 6- to 8-week-old female BALB/c mice (Harlan Sprague Dawley, Inc., Indianapolis, Ind.) were injected with 100 μg of pWNVh-DJY, pWNVy-DJY, or pcDNA3.1 (without an insert) in PBS and 0.25% bupivacaine-HCl (Sigma, St Louis, Mo.). Two weeks later, the mice received a boost of another 100 μg DNA injections. Thirteen days after the boost injection, the mice were sacrificed, the spleens were harvested, and the lymphocytes were isolated and tested for cellular immune responses.
Harvested splenic lymphocytes were pooled for two mice in each immunized group and suspended to a concentration of 5×10^6 cells/ml. A 100 μl aliquot, containing 5×10^5 cells, was immediately added to each well of a 96-well, flat bottom microtiter plate. Reconstituted peptide, in vitro translated protein, or in vitro translation control were added to the wells, at concentrations of 5 μg/ml and 1 μg/ml (and 0.5 μg/ml for in vitro translated protein and in vitro translation control protein). Concanavalin A (Con A) was used as a positive proliferation control. The assay conditions were set up in triplicate. The cells were incubated at 37° C. in 5% CO2 for three days. One μCi of tritiated thymidine was added to each well and the cells were incubated for 18 hours at 37° C. The plate was harvested and the amount of incorporated tritiated thymidine was measured in a Beta Plate reader (Wallac, Turku, Finland). Stimulation Index was determined from the formula: Stimulation Index (SI)=(experimental count/spontaneous count). Spontaneous count wells included 5% fetal bovine serum which served as an irrelevant protein control.
The values presented for each condition are stimulation indices averaged over triplicate wells. For each immunization group tested, splenocytes were pooled from two mice within the group. “H” indicates splenocytes from the pWNVh-DJY-immunized group. “Y” indicates splenocytes from the pWNVh-DJY-immunized group of mice. “pcDNA3.1” indicates splenocytes from the pcDNA3.1-immunized control group of mice. Peptides 1, 2, and 3 are the WNVC-P1, WNVC-P2, and WNVC-P3 peptides described above. “Peptide 123” indicates a mixture of peptide 1, 2, and 3. “Y protein” indicates the Cp protein in vitro translated from the pWNVy-DJY construct. “Ctrl pro” indicates the in vitro translation control, generated with pcDNA3.1 vector containing no expressible insert, as described above. Detection of Intracellular IFN-γ by Flow Cytometry

[2] = tested on: SH-SY5Y neuroblastoma cells; experiment: TUNEL analysis of cells incubated with peptide; assay type: cell-based; details: 10 μg peptide per 1×10^5 cells, 24 hours
Method: Peptide WNVC-P3, as described in Example 3 and FIG. 11 above, was tested for its ability to induce apoptosis in cells in culture. Peptide WNVC-P3 was incubated with SH-SY5Y neuroblastoma cells (ATCC; Manassas, Va.) at a concentration of 10 μg peptide per 1×10^5 cells.

[3] = splenocytes from H (pWNVh-DJY-immunized) mice, protein or peptide 1 μg/ml
[4] = splenocytes from H (pWNVh-DJY-immunized) mice, protein or peptide 5 μg/ml
[5] = splenocytes from Y group of immunized mice, protein or peptide 1 μg/ml
[6] = splenocytes from Y group of immunized mice, protein or peptide 5 μg/ml
[7] = splenocytes from pcDNA3.1-immunized control mice, protein or peptide 1 μg/ml
[8] = splenocytes from pcDNA3.1-immunized control mice, protein or peptide 5 μg/ml

KRAMLSLIDGKGPIRFVLA [Peptide 2]
Stimulation Index (SI) [1, 3]: 1.3 | Stimulation Index (SI) [1, 4]: 1.7 | Stimulation Index (SI) [1, 5]: 1.8 | Stimulation Index (SI) [1, 6]: 1.6 | Stimulation Index (SI) [1, 7]: 1.0 | Stimulation Index (SI) [1, 8]: 0.9

SKKPGGPGKSRAVNMLKRGMPR [Peptide 1]
Stimulation Index (SI) [1, 3]: 0.7 | Stimulation Index (SI) [1, 4]: 0.5 | Stimulation Index (SI) [1, 5]: 1.2 | Stimulation Index (SI) [1, 6]: 0.8 | Stimulation Index (SI) [1, 7]: 1.3 | Stimulation Index (SI) [1, 8]: 0.9

Concanavalin A [Con A, reference compound]
Stimulation Index (SI) [1, 4]: 686.5 | Stimulation Index (SI) [1, 6]: 366.9 | Stimulation Index (SI) [1, 8]: 71.8

TLTSAINRRSSKQKKRGGKTGI [Peptide 3]
Stimulation Index (SI) [1, 3]: 2.0 | Stimulation Index (SI) [1, 4]: 1.5 | Stimulation Index (SI) [1, 5]: 1.4 | Stimulation Index (SI) [1, 6]: 1.1 | Stimulation Index (SI) [1, 7]: 0.7 | Stimulation Index (SI) [1, 8]: 0.8 | TUNEL-positive cells [2]: TUNEL-positive cells were identified
